Test [1] deals with T1, Mitogen-activated protein kinase 14 (Homo sapiens, UniProt Q16539). Briefly: Inhibition of p38alpha by immunosorbent based kinase assay.
For test [2], the target named is T1, Mitogen-activated protein kinase 14. Nature of the test: Inhibition of p38alpha-dependent TNFalpha production in human whole blood.
The target of test [3] is RAC-alpha serine/threonine-protein kinase (Homo sapiens) (UniProt P31749). Nature of the test: Inhibition of AKT1 at 10 uM.
Test [4] addresses T2, Serine/threonine-protein kinase PLK4 (Homo sapiens) (UniProt O00444).
T2 sequence (whole entry): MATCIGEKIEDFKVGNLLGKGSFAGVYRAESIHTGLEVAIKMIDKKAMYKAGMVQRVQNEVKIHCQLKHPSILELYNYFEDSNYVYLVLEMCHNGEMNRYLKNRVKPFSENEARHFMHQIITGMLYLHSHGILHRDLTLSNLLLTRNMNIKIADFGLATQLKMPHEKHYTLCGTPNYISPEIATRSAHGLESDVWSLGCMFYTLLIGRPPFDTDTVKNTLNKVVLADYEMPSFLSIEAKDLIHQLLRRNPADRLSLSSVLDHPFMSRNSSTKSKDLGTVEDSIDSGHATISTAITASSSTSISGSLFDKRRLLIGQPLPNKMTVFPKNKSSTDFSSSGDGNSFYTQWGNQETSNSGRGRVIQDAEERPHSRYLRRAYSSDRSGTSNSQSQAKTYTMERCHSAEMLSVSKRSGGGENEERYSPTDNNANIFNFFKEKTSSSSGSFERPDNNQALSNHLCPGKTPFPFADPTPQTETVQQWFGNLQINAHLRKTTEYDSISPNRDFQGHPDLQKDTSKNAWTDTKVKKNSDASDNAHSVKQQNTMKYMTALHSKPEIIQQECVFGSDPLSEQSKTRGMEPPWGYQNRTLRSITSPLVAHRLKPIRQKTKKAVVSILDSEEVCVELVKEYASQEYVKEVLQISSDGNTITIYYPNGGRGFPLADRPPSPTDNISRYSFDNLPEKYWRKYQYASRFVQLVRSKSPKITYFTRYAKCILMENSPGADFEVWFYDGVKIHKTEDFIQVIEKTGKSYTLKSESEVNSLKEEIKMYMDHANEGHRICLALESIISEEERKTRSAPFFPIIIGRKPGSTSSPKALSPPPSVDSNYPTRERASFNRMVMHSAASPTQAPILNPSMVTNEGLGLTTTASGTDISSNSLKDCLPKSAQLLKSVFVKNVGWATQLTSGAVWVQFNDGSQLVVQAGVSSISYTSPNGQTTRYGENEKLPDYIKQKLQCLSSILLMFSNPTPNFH
Briefly: Inhibition of SAK at 10 uM.

Test [5] deals with T3, NUAK family SNF1-like kinase 1 (Homo sapiens) (UniProt O60285).
T3 sequence (whole entry): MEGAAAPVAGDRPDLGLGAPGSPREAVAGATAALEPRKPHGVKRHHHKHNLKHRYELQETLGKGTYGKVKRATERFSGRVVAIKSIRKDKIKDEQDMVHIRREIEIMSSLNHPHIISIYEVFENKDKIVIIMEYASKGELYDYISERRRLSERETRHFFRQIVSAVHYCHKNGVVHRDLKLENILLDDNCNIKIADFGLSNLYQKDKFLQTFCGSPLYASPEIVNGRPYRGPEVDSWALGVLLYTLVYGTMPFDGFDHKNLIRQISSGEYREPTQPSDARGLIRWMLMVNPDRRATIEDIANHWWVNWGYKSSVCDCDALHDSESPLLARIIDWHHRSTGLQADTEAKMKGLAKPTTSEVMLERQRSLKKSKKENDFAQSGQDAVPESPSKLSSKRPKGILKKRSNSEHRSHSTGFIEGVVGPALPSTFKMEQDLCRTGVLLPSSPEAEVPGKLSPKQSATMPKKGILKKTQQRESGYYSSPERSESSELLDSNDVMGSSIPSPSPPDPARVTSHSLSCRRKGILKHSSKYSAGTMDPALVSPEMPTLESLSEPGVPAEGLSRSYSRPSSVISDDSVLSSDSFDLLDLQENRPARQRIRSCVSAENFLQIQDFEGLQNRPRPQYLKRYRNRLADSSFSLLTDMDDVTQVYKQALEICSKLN
Briefly: Inhibition of ARK5 at 10 uM.

Test [6] addresses BDNF/NT-3 growth factors receptor (Homo sapiens) (UniProt Q16620). Briefly: Inhibition of TRKB at 10 uM.
The target of test [7] is Aurora kinase B (Homo sapiens) (UniProt Q96GD4). Briefly: Inhibition of AuroraB at 10 uM.
For test [8], the target named is Proto-oncogene tyrosine-protein kinase Src (Homo sapiens) (UniProt P12931). Nature of the test: Inhibition of SRC at 10 uM.
In test [9] the test system is Serine/threonine-protein kinase B-raf (Homo sapiens), P15056 [V600E]. Nature of the test: Inhibition of BRAF V600E mutant at 10 uM.
Test [10] has as its target Vascular endothelial growth factor receptor 2 (Homo sapiens) (UniProt P35968). Briefly: Inhibition of VEGFR2 at 10 uM.
Test [11] deals with Insulin receptor (Homo sapiens) (UniProt P06213). Nature of the test: Inhibition of INSR at 10 uM.
Test [12] deals with Insulin-like growth factor 1 receptor (Homo sapiens) (UniProt P08069). Nature of the test: Inhibition of IGF1R at 10 uM.
The target in test [13] is Hepatocyte growth factor receptor (Homo sapiens) (UniProt P08581). Nature of the test: Inhibition of MET at 10 uM.
Test [14] concerns the target Focal adhesion kinase 1 (Homo sapiens) (UniProt Q05397). Briefly: Inhibition of FAK at 10 uM.
Test [15] deals with Serine/threonine-protein kinase PLK1 (Homo sapiens) (UniProt P53350). Nature of the test: Inhibition of PLK1 at 10 uM.
Test [16] deals with Tyrosine-protein kinase receptor UFO (Homo sapiens) (UniProt P30530). Nature of the test: Inhibition of AXL at 10 uM.
Test [17] deals with Serine/threonine-protein kinase N1 (Homo sapiens) (UniProt Q16512). Nature of the test: Inhibition of PRK1 at 10 uM.
In test [18] the target is Casein kinase II subunit alpha (Homo sapiens) (UniProt P68400). Briefly: Inhibition of CK2alpha1 at 10 uM.

Calls of active or inactive are those of the source. The rule behind the calls is not given here.

Sequence of Serine/threonine-protein kinase B-raf (Homo sapiens), P15056 [V600E] (P15056 whole entry V600E): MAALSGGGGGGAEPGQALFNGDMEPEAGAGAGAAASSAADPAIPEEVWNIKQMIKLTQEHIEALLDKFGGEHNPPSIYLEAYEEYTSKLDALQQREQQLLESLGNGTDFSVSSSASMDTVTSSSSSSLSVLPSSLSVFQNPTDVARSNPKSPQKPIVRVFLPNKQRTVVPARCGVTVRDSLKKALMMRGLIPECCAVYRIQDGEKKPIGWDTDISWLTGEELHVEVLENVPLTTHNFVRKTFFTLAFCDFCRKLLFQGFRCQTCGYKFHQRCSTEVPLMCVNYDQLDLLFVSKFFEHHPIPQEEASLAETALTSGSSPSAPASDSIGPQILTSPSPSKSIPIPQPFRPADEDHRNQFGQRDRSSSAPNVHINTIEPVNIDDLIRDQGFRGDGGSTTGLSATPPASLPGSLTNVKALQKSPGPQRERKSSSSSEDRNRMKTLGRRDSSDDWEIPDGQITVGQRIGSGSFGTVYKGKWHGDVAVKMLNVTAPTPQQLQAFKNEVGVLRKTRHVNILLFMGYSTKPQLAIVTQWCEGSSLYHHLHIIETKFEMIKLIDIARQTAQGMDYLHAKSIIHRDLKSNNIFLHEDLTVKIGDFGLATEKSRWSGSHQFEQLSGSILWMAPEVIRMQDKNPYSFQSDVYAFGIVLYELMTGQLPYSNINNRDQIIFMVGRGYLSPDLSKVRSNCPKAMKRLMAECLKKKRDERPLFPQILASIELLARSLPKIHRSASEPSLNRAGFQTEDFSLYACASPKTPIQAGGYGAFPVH
Sequence of Insulin-like growth factor 1 receptor (Homo sapiens) (P08069 31-736 limits assumed): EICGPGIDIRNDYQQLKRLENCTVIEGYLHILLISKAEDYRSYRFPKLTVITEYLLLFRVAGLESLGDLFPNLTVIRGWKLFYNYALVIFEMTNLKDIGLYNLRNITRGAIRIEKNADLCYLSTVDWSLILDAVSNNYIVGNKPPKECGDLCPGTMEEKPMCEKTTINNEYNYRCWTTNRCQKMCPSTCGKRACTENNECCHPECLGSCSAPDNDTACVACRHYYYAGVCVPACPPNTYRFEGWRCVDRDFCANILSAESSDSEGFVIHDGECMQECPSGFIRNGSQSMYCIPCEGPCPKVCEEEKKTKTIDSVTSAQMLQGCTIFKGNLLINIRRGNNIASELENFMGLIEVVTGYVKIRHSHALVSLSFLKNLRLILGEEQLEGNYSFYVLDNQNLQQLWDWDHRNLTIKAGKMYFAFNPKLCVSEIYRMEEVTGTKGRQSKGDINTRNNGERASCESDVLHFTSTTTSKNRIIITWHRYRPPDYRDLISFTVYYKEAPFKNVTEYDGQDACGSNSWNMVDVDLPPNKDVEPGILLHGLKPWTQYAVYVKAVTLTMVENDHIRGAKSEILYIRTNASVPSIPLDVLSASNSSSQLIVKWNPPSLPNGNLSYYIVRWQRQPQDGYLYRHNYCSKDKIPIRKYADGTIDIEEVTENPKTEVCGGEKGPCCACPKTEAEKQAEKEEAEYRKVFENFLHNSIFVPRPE
Sequence of Insulin-like growth factor 1 receptor (Homo sapiens) (P08069 741-1367 limits assumed): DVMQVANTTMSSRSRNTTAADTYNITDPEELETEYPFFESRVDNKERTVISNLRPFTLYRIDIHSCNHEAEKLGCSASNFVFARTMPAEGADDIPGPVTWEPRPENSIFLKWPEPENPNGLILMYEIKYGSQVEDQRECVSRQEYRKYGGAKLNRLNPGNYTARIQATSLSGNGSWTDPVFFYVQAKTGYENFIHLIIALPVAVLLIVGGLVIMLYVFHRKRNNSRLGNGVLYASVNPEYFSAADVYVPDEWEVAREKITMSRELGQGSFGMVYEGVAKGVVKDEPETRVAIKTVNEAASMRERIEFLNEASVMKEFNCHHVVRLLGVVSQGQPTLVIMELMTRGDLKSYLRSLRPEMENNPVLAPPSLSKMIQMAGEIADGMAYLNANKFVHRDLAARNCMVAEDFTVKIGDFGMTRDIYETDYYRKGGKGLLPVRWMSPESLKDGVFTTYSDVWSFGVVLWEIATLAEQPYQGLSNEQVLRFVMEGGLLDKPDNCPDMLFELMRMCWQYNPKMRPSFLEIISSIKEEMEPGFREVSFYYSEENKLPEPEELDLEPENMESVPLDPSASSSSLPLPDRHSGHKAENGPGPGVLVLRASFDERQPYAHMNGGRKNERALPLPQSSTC
T1 sequence (Q16539 whole entry): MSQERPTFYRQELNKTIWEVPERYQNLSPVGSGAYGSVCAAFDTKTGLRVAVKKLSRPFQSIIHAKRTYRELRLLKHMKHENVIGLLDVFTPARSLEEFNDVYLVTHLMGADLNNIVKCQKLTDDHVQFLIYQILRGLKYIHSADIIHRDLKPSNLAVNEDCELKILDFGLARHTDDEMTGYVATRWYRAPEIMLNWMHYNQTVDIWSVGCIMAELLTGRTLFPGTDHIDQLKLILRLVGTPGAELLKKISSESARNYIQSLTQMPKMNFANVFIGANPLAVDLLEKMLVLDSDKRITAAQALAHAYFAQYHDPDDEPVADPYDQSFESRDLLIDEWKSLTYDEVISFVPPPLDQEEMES
Sequence of Hepatocyte growth factor receptor (Homo sapiens) (P08581 whole entry): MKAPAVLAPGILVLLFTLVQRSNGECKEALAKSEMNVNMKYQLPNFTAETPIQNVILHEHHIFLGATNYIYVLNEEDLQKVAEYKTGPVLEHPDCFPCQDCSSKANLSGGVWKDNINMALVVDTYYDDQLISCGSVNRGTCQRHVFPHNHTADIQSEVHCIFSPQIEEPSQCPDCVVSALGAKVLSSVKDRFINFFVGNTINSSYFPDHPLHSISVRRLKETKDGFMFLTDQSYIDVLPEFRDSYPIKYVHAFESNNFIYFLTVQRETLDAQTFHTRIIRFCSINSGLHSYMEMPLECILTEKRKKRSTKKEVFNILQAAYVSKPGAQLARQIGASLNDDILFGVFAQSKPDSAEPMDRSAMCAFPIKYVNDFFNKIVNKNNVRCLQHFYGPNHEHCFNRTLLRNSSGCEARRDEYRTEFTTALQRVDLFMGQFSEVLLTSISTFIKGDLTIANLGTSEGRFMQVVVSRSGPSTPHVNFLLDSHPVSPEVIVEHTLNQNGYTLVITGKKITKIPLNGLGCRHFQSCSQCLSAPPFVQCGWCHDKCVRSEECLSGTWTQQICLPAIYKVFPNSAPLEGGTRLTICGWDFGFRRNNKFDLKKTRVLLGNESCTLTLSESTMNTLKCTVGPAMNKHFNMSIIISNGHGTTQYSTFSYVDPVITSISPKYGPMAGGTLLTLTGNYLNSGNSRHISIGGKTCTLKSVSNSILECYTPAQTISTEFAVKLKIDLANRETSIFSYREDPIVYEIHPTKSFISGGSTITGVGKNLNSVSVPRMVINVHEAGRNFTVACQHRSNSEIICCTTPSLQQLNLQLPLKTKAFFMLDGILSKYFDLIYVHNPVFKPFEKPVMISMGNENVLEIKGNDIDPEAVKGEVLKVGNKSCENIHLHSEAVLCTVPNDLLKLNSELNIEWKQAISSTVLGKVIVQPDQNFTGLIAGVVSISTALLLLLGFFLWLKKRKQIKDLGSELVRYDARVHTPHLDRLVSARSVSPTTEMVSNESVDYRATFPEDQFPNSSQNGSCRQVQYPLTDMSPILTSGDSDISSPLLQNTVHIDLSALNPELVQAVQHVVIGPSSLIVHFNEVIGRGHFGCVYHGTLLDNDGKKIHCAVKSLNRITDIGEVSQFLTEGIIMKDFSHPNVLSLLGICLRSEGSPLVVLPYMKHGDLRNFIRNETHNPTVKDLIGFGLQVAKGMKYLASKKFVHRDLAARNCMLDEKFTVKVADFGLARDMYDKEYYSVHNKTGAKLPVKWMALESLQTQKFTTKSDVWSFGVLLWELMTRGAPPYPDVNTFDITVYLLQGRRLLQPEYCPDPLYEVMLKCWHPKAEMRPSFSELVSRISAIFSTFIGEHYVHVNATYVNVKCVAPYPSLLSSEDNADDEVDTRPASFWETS
Sequence of Serine/threonine-protein kinase PLK1 (Homo sapiens) (P53350 whole entry): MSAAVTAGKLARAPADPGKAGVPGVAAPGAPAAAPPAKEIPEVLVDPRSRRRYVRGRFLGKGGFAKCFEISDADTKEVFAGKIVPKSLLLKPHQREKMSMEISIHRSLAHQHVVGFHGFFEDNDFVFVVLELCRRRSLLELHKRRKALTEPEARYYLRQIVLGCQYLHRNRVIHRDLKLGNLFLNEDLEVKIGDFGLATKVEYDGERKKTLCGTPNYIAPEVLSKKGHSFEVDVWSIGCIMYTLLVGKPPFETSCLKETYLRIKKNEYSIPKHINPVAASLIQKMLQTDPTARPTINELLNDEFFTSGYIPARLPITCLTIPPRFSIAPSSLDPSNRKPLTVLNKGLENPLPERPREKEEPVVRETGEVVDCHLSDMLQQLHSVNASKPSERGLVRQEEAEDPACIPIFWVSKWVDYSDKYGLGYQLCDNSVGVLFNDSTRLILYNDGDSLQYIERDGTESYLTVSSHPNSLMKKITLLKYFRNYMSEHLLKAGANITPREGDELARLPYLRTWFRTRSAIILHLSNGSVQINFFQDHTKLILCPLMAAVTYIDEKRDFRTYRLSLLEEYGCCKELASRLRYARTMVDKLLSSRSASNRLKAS
Sequence of Casein kinase II subunit alpha (Homo sapiens) (P68400 whole entry, looked up): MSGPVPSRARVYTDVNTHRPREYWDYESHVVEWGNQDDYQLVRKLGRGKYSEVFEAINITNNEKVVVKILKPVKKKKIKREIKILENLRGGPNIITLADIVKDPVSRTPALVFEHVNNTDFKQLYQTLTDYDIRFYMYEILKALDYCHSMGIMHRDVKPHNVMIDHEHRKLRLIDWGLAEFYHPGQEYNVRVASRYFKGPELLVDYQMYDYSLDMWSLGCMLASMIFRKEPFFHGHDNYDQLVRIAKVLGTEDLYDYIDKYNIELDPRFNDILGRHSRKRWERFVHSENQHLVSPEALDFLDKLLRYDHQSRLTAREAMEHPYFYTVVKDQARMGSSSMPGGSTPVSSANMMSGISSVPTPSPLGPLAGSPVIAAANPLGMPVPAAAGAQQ

By IC50 is commonly meant the concentration that gives 50% inhibition. Consider `COc1ccc2c(c1)C(=O)c1ccc(Nc3ccc(C(F)(F)F)cc3N)cc1CC2`, for which the figures for the concentration for half-maximal inhibition (IC50) in [1] and in test [2] were 900 nM and 25500 nM, respectively. Also, the inhibition entry in test [3], in test [4], in test [5], in test [6], in [7] and in test [8] was “inactive” each time. Also, the inhibition entry in test [9], in [10], in [11], in test [12], in [13] and in test [14] was “inactive” throughout. Also, the inhibition result in [15], in test [16], in [17] and in test [18] was “inactive” each time.

On to `CC1(C)OC[C@@H](COc2ccc3c(c2)CCc2cc(Nc4ccc(F)cc4F)ccc2C3=O)O1`, for which the IC50 in test [1] amounted to 360 nM; in test [2] it was 123000 nM. Further, the inhibition result in [3], in test [4], in test [5], in test [6], in test [7] and in test [8] was “inactive” each time. The inhibition entry in test [9], in [10], in test [11], in test [12], in test [13] and in [14] was “inactive” each time. The inhibition result in test [15], in test [16], in [17] and in test [18] was “inactive” in each case.

For `COc1cccc2c1CCc1cc(Nc3ccccc3N)ccc1C2=O`, the IC50 in test [1] worked out at 80 nM; in test [2] it was 52100 nM. For the same compound, the inhibition entry in [3], in test [4], in [5], in test [6], in test [7] and in [8] was “inactive” throughout. Besides, the inhibition result in test [9], in [10], in test [11], in test [12], in [13] and in test [14] was “inactive” in each case. The inhibition result in [15], in test [16], in test [17] and in test [18] was “inactive” in each case.

Turning to `COc1ccc2c(c1)C(=O)c1ccc(Nc3ccc(F)c(C)c3)cc1CC2`, the IC50 in [1] worked out at 40 nM; in test [2], 1900 nM. The inhibition result in test [3], in test [4], in test [5], in test [6], in test [7] and in test [8] was “inactive” each time. Besides, the inhibition entry in [9], in test [10], in [11], in test [12], in test [13] and in test [14] was “inactive” each time. The inhibition entry in test [15], in test [16], in [17] and in test [18] was “inactive” in each case.

For `CC1(C)OC[C@@H](CCOc2ccc3c(c2)C(=O)c2ccc(Nc4ccc(F)cc4F)cc2CC3)O1`, the values for the IC50 in test [1] and in [2] were 10 nM and 320 nM, respectively. Further, the inhibition entry in test [3], in [4], in [5], in [6], in test [7] and in [8] was “inactive” throughout. Also, the inhibition entry in test [9], in test [10], in test [11], in test [12], in test [13] and in [14] was “inactive” in each case. Further, the inhibition result in test [15], in test [16], in test [17] and in [18] was “inactive” throughout.

Take `O=C1c2ccc(Nc3ccc(F)cc3F)cc2CCc2c(OC[C@H](O)CO)cccc21`: the IC50 in test [1] came to 20 nM; in test [2], 100000 nM. Further, the inhibition entry in test [3], in test [4], in [5], in test [6], in [7] and in test [8] was “inactive” in each case. Further, the inhibition result in [9], in test [10], in test [11], in [12], in [13] and in [14] was “inactive” each time. The inhibition result in [15], in test [16], in test [17] and in [18] was “inactive” in each case.

Turning to `COc1ccc2c(c1)C(=O)c1ccc(Nc3ccc(F)cc3Cl)cc1CC2`, the concentration for half-maximal inhibition (IC50) in [1] was 40 nM; in [2], 5400 nM. In addition, the inhibition result in [3], in [4], in [5], in test [6], in test [7] and in [8] was “inactive” throughout. The inhibition result in test [9], in [10], in [11], in test [12], in test [13] and in test [14] was “inactive” each time. Besides, the inhibition result in test [15], in test [16], in [17] and in test [18] was “inactive” in each case.

Values taken from ChEMBL document CHEMBL2150974 (J Med Chem, 2012).
